Data: patent US20150011423A1, “MEANS AND METHODS FOR ASSESSING KIDNEY TOXICITY” (BASF SE, priority 2011, published 2015)
Marks after values point to notes of the source that are not given here.

Tested on: rats
Experiment: 28-day repeated dose study in rats with mass spectrometry-based plasma metabolite profiling (GC-MS, LC-MS, SPE-LC-MS); treatment ratios versus control
Conditions: plasma
[1] = female rats, day 14, high dose, Table 3a tubular defect
[2] = female rats, day 14, high dose, Table 3b tubular defect
[3] = female rats, day 28, high dose, Table 3a tubular defect
[4] = female rats, day 28, high dose, Table 3b tubular defect
[5] = male rats, day 14, high dose, Table 3c tubular defect
[6] = male rats, day 14, high dose, Table 3d tubular defect
[7] = male rats, day 28, high dose, Table 3c tubular defect
[8] = male rats, day 28, high dose, Table 3d tubular defect
[9] = male rats, day 7, high dose, Table 7a interstitial nephritis
[10] = male rats, day 7, high dose, Table 7b interstitial nephritis
[11] = male rats, day 14, high dose, Table 7a interstitial nephritis
[12] = male rats, day 14, high dose, Table 7b interstitial nephritis
[13] = male rats, day 28, high dose, Table 7a interstitial nephritis
[14] = male rats, day 28, high dose, Table 7b interstitial nephritis

## N.N.O=C([O-])C1(C(=O)[O-])CCC1.[Pt+2] [Carboplatin]
[1]
  Creatine, treatment ratio versus control: 1.22 *
  Creatinine, treatment ratio versus control: 0.85
  Galactose, lipid fraction, treatment ratio versus control: 1.17 *
  Glucuronic acid, treatment ratio versus control: 1.36
  Glycerol-3-phosphate, polar fraction, treatment ratio versus control: 1.66 *
  Glycine, treatment ratio versus control: 1.08
  Histidine, treatment ratio versus control: 1.03
  Isoleucine, treatment ratio versus control: 1.09 *
  Leucine, treatment ratio versus control: 1.13 *
  Lysophosphatidylcholine (C18:1), treatment ratio versus control: 0.98
  Phosphatidylcholine No 02, treatment ratio versus control: 1.07 *
  TAG No 05, treatment ratio versus control: 1.9 *
  Threonic acid, treatment ratio versus control: 1.14
  Threonine, treatment ratio versus control: 0.99
  Uracil, treatment ratio versus control: 1.07
  Valine, treatment ratio versus control: 1.07 *
  Xylitol, treatment ratio versus control: 0.83
[2]
  Cysteine, treatment ratio versus control: 0.83 *
  Glycerol, polar fraction, treatment ratio versus control: 0.88^
  Hippuric acid, treatment ratio versus control: 0.59^
  Indole-3-acetic acid, treatment ratio versus control: 0.38 *
  Spermidine, treatment ratio versus control: 0.95^
  Sucrose, treatment ratio versus control: 0.67 *
[3]
  Creatine, treatment ratio versus control: 1.41 *
  Creatinine, treatment ratio versus control: 1.59 *
  Galactose, lipid fraction, treatment ratio versus control: 0.84^
  Glucuronic acid, treatment ratio versus control: 1.24 *
  Glycerol-3-phosphate, polar fraction, treatment ratio versus control: 2.2 *
  Glycine, treatment ratio versus control: 1.17 *
  Histidine, treatment ratio versus control: 1.3 *
  Isoleucine, treatment ratio versus control: 1.35 *
  Leucine, treatment ratio versus control: 1.38 *
  Lysophosphatidylcholine (C18:1), treatment ratio versus control: 1.12 *
  Phosphatidylcholine No 02, treatment ratio versus control: 0.97^
  TAG No 05, treatment ratio versus control: 1.27 *
  Threonic acid, treatment ratio versus control: 1.23 *
  Threonine, treatment ratio versus control: 1.24 *
  Uracil, treatment ratio versus control: 1.37 *
  Valine, treatment ratio versus control: 1.25 *
  Xylitol, treatment ratio versus control: 1.56 *
[4]
  Cysteine, treatment ratio versus control: 0.67
  Glycerol, polar fraction, treatment ratio versus control: 0.78 *
  Hippuric acid, treatment ratio versus control: 0.3 *
  Indole-3-acetic acid, treatment ratio versus control: 0.65
  Spermidine, treatment ratio versus control: 0.69 *
  Sucrose, treatment ratio versus control: 0.61
[5]
  Allantoin, treatment ratio versus control: 1.4
  Creatine, treatment ratio versus control: 1.32 *
  Glycerol-3-phosphate, polar fraction, treatment ratio versus control: 1.59 *
  Histidine, treatment ratio versus control: 1.02
  Kynurenic acid, treatment ratio versus control: 1.21 *
  Nervonic acid (C24:cis[15]1), treatment ratio versus control: 1.02
  Pantothenic acid, treatment ratio versus control: 1.17
  Pseudouridine, treatment ratio versus control: 1.33 *
  Taurine, treatment ratio versus control: 1.18 *
  Urea, treatment ratio versus control: 1.47 *
[6]
  16-Methylheptadecanoic acid, treatment ratio versus control: 0.74 *
  Linolenic acid (C18:cis[9,12,15]3), treatment ratio versus control: 0.75
  Phosphatidylcholine No 02, treatment ratio versus control: 0.87 *
  Phosphatidylcholine No 04, treatment ratio versus control: 0.74 *
  TAG (C18:1, C18:2), treatment ratio versus control: 0.79 *
[7]
  Allantoin, treatment ratio versus control: 1.24 *
  Creatine, treatment ratio versus control: 1.42 *
  Glycerol-3-phosphate, polar fraction, treatment ratio versus control: 1.61 *
  Histidine, treatment ratio versus control: 1.22 *
  Kynurenic acid, treatment ratio versus control: 1.7
  Nervonic acid (C24:cis[15]1), treatment ratio versus control: 1.51 *
  Pantothenic acid, treatment ratio versus control: 1.47 *
  Pseudouridine, treatment ratio versus control: 1.11 *
  Taurine, treatment ratio versus control: 1.54 *
  Urea, treatment ratio versus control: 1.08
[8]
  16-Methylheptadecanoic acid, treatment ratio versus control: 0.51 *
  Linolenic acid (C18:cis[9,12,15]3), treatment ratio versus control: 0.7 *
  Phosphatidylcholine No 02, treatment ratio versus control: 0.91 *
  Phosphatidylcholine No 04, treatment ratio versus control: 0.78
  TAG (C18:1, C18:2), treatment ratio versus control: 0.62 *

## CCc1ccccc1 [Ethyl benzene, Ethylbenzene]
[9]
  Creatine, treatment ratio versus control: 1.4 *
  Creatinine, treatment ratio versus control: 1.41 *
  Eicosanoic acid (C20:0), treatment ratio versus control: 1.41 *
  Glucuronic acid, treatment ratio versus control: 1.08^
  Lignoceric acid (C24:0), treatment ratio versus control: 1.31 *
  Phosphatidylcholine (C18:2, C20:4), treatment ratio versus control: 1.05 *
  Serine, treatment ratio versus control: 1.12 *
  Sphingomyelin (d18:1, C16:0), treatment ratio versus control: 1.69 *
  Threonine, treatment ratio versus control: 1.31 *
  myo-Inositol-2-phosphate, treatment ratio versus control: 1.39 *
[10]
  Glycerol, polar fraction, treatment ratio versus control: 0.98^
  Isopalmitic acid (C16:0), treatment ratio versus control: 0.55 *
  Kynurenic acid, treatment ratio versus control: 0.71 *
[11]
  Creatine, treatment ratio versus control: 1.35 *
  Creatinine, treatment ratio versus control: 1.58 *
  Eicosanoic acid (C20:0), treatment ratio versus control: 1.3 *
  Glucuronic acid, treatment ratio versus control: 1.17 *
  Lignoceric acid (C24:0), treatment ratio versus control: 1.55 *
  Phosphatidylcholine (C18:2, C20:4), treatment ratio versus control: 1.06 *
  Serine, treatment ratio versus control: 1.5 *
  Sphingomyelin (d18:1, C16:0), treatment ratio versus control: 1.5 *
  Threonine, treatment ratio versus control: 1.72 *
  myo-Inositol-2-phosphate, treatment ratio versus control: 0.88^
[12]
  Glycerol, polar fraction, treatment ratio versus control: 0.87^
  Isopalmitic acid (C16:0), treatment ratio versus control: 0.57 *
  Kynurenic acid, treatment ratio versus control: 0.83 *
[13]
  Creatine, treatment ratio versus control: 1.34 *
  Creatinine, treatment ratio versus control: 1.33 *
  Eicosanoic acid (C20:0), treatment ratio versus control: 1.76 *
  Glucuronic acid, treatment ratio versus control: 1.26 *
  Lignoceric acid (C24:0), treatment ratio versus control: 1.23 *
  Phosphatidylcholine (C18:2, C20:4), treatment ratio versus control: 1.05^
  Serine, treatment ratio versus control: 1.54 *
  Sphingomyelin (d18:1, C16:0), treatment ratio versus control: 1.48 *
  Threonine, treatment ratio versus control: 2.44 *
  myo-Inositol-2-phosphate, treatment ratio versus control: 1.3 *
[14]
  Glycerol, polar fraction, treatment ratio versus control: 0.75 *
  Isopalmitic acid (C16:0), treatment ratio versus control: 0.59 *
  Kynurenic acid, treatment ratio versus control: 0.8 *
